For test [1], the target named is T1, human Gal-7 (Homo sapiens, UniProt P47929).
T1 construct: made in house; host or cells: Escherichia coli BL21 (DE3)
Nature of the test: Competitive solid-phase assay (SPA), immobilized asialofetuin, Gal-7. It is filed as binding. As to conditions: competitive SPA, immobilized asialofetuin; mean ± S.D., three independent experiments. The procedure: (§1) The assay was adapted from Rapoport et al. (2010) ([88]). Briefly, 96-well plates (flat-bottom) were coated with 10 μg/ml asialofetuin (ASF, Sigma-Aldrich) in sodium carbonate buffer (pH 9.6) and incubated overnight at 4 °C. Then, wells were washed three times with 100 μl/well PBS-Tween 0.05% (w/v) and blocked with 100 μl/well PBS-bovine serum albumin (BSA) 2% (1 h, room temperature (RT)) in a humid chamber. Meanwhile, equal volumes of human recombinant Gal-1, -3, -4, -7, and -12 (20–40 μg/ml) in PBS-BSA 0.3% buffer were preincubated with the corresponding inhibitors in serial dilutions (2 h, 37 °C). After washing, galectins were detected using the corresponding antigalectin primary detection antibodies in PBS-BSA 0.3% w/v (1 h at RT). For Gal-1, wells were incubated with an in-house purified 100 ng/ml biotinylated rabbit anti–human Gal-1 polyclonal immunoglobulin G. For Gal-3, -4, and -7, a 1:500 dilution of the corresponding biotinylated anti-human galectin antibodies was used (BAF1154, BAF1227, and MAB13391, respectively, R&D Systems). For Gal-12, a rabbit anti-human Gal-12 polyclonal antibody (Santa Cruz Biotechnology, 1:700) was used. For Gal-1, -3, -4, and -7, plates were rinsed three times before adding 0.33 μg/ml horseradish peroxidase (HRP)-labeled streptavidin (Sigma-Aldrich) for 30 min. For Gal-12, an anti-rabbit secondary antibody conjugate coupled to HRP was incubated for 1 h at RT in PBS-BSA 0.3% w/v. After washing, 100 μl TMB solution (0.1 mg/ml tetramethylbenzidine and 0.06% H2O2 in citrate-phosphate buffer, pH 5.0) was added to plates. The reaction was stopped by adding a 2N H2SO4 solution. Absorbance was determined at 450 nm in a Multiskan MS microplate reader (Thermo Fisher Scientific).

The next test has as its target T2, human Gal-1 (Homo sapiens, UniProt P09382).
T2 construct: made in house; host or cells: Escherichia coli BL21 (DE3)
Nature of the test: Competitive solid-phase assay (SPA), immobilized asialofetuin, Gal-1. Type of test: binding. As to conditions: mean ± S.D., three independent experiments. The protocol: as §1

The target in the next test is T3, human Gal-3 (Homo sapiens, UniProt P17931).
T3 construct: made in house; host or cells: Escherichia coli BL21 (DE3)
T3 sequence (P17931 whole entry): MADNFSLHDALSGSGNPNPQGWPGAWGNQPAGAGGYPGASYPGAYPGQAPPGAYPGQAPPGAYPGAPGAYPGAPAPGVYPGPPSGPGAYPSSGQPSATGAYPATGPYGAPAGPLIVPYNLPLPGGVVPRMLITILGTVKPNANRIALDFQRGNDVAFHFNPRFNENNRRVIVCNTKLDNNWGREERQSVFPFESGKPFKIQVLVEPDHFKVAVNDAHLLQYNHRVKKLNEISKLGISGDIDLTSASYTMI
Kind of test: Competitive solid-phase assay (SPA), immobilized asialofetuin, Gal-3. Type of test: binding. Conditions: mean ± S.D., three independent experiments. The procedure:
as §1

In test [2] the target is T4, human Gal-4 (Homo sapiens, UniProt P56470).
T4 construct: His6-SUMO (N, cleaved yes); made in house; host or cells: Escherichia coli BL21 (DE3)
T4 sequence (P56470 1-323): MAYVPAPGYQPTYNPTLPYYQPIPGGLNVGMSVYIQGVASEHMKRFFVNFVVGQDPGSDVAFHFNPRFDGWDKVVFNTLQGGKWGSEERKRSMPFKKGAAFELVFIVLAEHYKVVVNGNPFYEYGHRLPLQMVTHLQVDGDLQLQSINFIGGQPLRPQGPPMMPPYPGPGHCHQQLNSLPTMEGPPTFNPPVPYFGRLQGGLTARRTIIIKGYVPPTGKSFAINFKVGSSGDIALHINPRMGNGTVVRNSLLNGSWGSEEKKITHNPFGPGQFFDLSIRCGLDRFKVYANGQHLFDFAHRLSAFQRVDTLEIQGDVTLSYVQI
Kind of test: Competitive solid-phase assay (SPA), immobilized asialofetuin, Gal-4. It is filed as binding. As to conditions: mean ± S.D., three independent experiments. The protocol: as §1

For test [3], the target named is T5, human Gal-12 (Homo sapiens, UniProt Q96DT0).
T5 construct: To obtain full-length human Gal-12, we adapted our previously optimized procedure for murine Gal-12; made in house; host or cells: Escherichia coli Rosetta 2 (DE3)
T5 sequence (Q96DT0 1-336): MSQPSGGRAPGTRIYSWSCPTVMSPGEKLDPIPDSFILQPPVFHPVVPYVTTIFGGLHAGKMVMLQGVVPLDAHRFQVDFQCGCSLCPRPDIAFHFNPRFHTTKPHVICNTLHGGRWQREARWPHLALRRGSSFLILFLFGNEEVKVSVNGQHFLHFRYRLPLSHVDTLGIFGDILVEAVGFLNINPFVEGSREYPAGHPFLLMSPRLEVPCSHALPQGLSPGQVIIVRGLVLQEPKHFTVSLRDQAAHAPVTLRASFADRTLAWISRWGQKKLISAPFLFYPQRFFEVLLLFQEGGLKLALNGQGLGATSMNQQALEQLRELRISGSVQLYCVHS
Kind of test: Isothermal titration calorimetry (ITC), Gal-12. Type of test: binding. Conditions: Gal-12, PBS, 298 K, n fixed to 1.00. The protocol: (§2) All ITC experiments were performed by using a NanoITC (TA Instruments) under previously optimized conditions ([89]). A typical titration involved 20 injections at 300 s intervals of 2.5 μl aliquots of a 2.5 to 10 mM ligand solution into the sample cell (volume 200 μl) containing the different galectins (30–100 μM). The solutions were prepared by dissolving the glycan ligands in degassed PBS buffer at 298 K. The titration cell was continuously stirred at 300 rev/min. The heats of dilution of the ligands in the buffer were subtracted from the titration data. […] Fitting was performed using the Nano Analyze software (TA Instruments; https://www.tainstruments.com/itcrun-dscrun-nanoanalyze-software/) to determine association constants (Ka) and the enthalpy change (ΔH). No reliable fit of the thermodynamic parameters could be obtained for binding affinities above 80 μM.
For orientation: ITC needs no label: the signal is the heat of the interaction.

In test [4] the target is T5, human Gal-12. Kind of test: Competitive solid-phase assay (SPA), immobilized asialofetuin, Gal-12. It is filed as binding. Conditions: mean ± S.D., three independent experiments. The procedure:
as §1

The target in the next test is Gal-1. Also on record: method as in PMID 15476813. Conditions: at 298 K; read-out: dissociation constant reported for Gal-1/LacNAc interactions; cited from earlier work.
The target of test [5] is T1, human Gal-7. Kind of test: Isothermal titration calorimetry (ITC), Gal-7. Type of test: binding. As to conditions: Gal-7, PBS, 298 K, n fixed to 1.00. The protocol: as §2
Test [6] concerns the target T4, human Gal-4. Nature of the test: Isothermal titration calorimetry (ITC), Gal-4. Type of test: binding. Conditions: Gal-4, PBS, 298 K; for Kd: n fixed to 1.00. The procedure: as §2
Test [7] deals with T4, human Gal-4. Kind of test: Inhibition of Gal-4-driven IL-6 secretion by activated PBMCs (IL-6 ELISA). Type of test: cell-based. Conditions: Gal-4 50 or 100 μg/ml; BGA6 0.5, 1, 2.5 and 5 mM; 72 h; anti-CD3/CD28 activated PBMCs. The procedure:
(§3) PBMCs were isolated from anonymous healthy volunteer buffy coats (Fundación Hemocentro Blood Bank, Buenos Aires, Argentina), using Ficoll-Hypaque density gradient (Lymphoprep). The samples were then centrifuged at 1500 rpm for 25 min, and the interface corresponding to mononuclear cells was carefully removed and diluted with PBS supplemented with 2% fetal bovine serum. To reduce platelet contamination, three washing steps with PBS 2% fetal bovine serum were performed, and freshly isolated PBMCs were subsequently resuspended in complete RPMI medium. To obtain a bead to T-cell ratio of 1:1, approximately 16 × 10^4 PBMCs were activated with 2 μl of Dynabeads Human T-Activator CD3/CD28 (Gibco). After 24 h stimulation at 37 °C and 5% CO2, cells were incubated with human recombinant Gal-4 (25, 50, or 100 μg/ml) in the absence or presence of BGA6 (0.5, 1, 2.5, and 5 mM) for an additional time period of 72 h.
(§4) Human IL-6 was determined in supernatants from activated PBMCs exposed or not to Gal-4 in the absence or presence of BGA6 using specific ELISA kits (BD Biosciences), according to the manufacturer's instructions. Briefly, 96-well plates (Costar) were coated with capture antibody during 18 h at 4 °C. […] Reaction was stopped with 2N H2SO4, and the absorbance was measured at 450 nm using a plate spectrophotometer (Multiskan).

The test system of another test is human PBMCs. Kind of test: IL-6 secretion by anti-CD3/CD28-activated PBMCs cultured with Gal-4 (IL-6 ELISA). It is filed as cell-based. Conditions: Gal-4 25, 50 or 100 μg/ml, 72 h. The protocol:
as §3, §4

“And” between values parts separate entries of the source, which are not always exact repeats. Identical values can stand only once.

T1 sequence (P47929 whole entry): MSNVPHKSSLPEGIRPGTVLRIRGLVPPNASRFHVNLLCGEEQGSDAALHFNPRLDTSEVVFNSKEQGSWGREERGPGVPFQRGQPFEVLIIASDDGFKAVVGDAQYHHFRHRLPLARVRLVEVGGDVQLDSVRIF
T2 sequence (P09382 whole entry): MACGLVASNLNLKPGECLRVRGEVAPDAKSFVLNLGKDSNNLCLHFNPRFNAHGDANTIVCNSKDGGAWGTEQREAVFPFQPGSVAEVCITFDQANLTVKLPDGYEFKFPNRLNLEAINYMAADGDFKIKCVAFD

What is called IC50 is the midpoint of a concentration-inhibition curve. Read a high IC50 as weaker potency in that assay. In the case of `CC(=O)NC1C(O)OC(CO)C(OC2OC(CO)C(O)C(O)C2O)C1OC1OC(C)C(O)C(O)C1O` (stereo not drawn) [Le^X, Lewis X trisaccharide], the IC50 at human Gal-7 [1] turned out to be 15.1 ± 2 mM; on human Gal-1, 8.2 ± 0.9 mM; on human Gal-3, 9.5 ± 0.5 mM; at human Gal-4 [2], 26.2 ± 0.9 mM; on human Gal-12 [4] it was 2 ± 0.3 mM. This molecule also registered a Kd on human Gal-12 [3] of 0.08 ± 0.009 mM.

As for `CC(=O)NC1C(O)OC(CO)C(OC2OC(CO)C(O)C(O)C2O)C1O` (stereo not drawn) [LacNAc, N-acetyllactosamine], the 50% inhibitory concentration (IC50) was 2.5 mM and 2.49 mM on human Gal-7 [1]; 1.3 ± 0.1 mM at human Gal-1; 2 ± 0.2 mM at human Gal-3; 25.8 mM on human Gal-4 [2]; 36 ± 0.9 mM at human Gal-12 [4]. Also, at Gal-1, the Kd was 0.076 mM.

Turning to `CC(=O)NC1C(O)OC(CO)C(OC2OC(CO)C(O)C(OC3OC(CO)C(O)C(O)C3NC(C)=O)C2OC2OC(C)C(O)C(O)C2O)C1O` (stereo not drawn) [BGA2, blood group A antigen 2], the IC50 at human Gal-7 [1] is 2.2 ± 0.4 mM; at human Gal-1, 6.3 mM and 6.32 mM; on human Gal-3, 1.9 ± 0.4 mM; on human Gal-4 [2], 0.2 mM and 0.24 mM; on human Gal-12 [4], 25.3 ± 12 mM. Moreover, the results for the Kd at human Gal-7 [5] and on human Gal-4 [6] were 0.103 ± 0.008 mM and 0.065 ± 0.005 mM, respectively. Moreover, the “-TΔS” value on human Gal-4 [6] was determined as 0.263 ± 0.048 kcal/mol. On human Gal-4 [6], the ΔH is -5.98 ± 0.48 kcal/mol.

Regarding `CC(=O)NC1C(OC2C(O)C(CO)OC(OC3C(CO)OC(O)C(O)C3O)C2OC2OC(C)C(O)C(O)C2O)OC(CO)C(O)C1O` (stereo not drawn) [BGA6, blood group A antigen tetraose 6], the “Gal-4-driven IL-6 secretion by human activated PBMCs in presence of BGA6” value at human Gal-4 [7] is “effectively suppressed”. Besides, the IC50 at human Gal-7 [1] was 5.4 ± 0.7 mM; on human Gal-1, 5 mM and 5.02 mM; at human Gal-3, 1.5 ± 0.3 mM; on human Gal-4 [2], 0.2 ± 0.1 mM; on human Gal-12 [4], 27.1 ± 1 mM. Moreover, the “-TΔS” value on human Gal-4 [6] was found to be 1.77 ± 0.14 kcal/mol. Further, the ΔH on human Gal-4 [6] was -7.65 ± 0.72 kcal/mol. Moreover, the Kd on human Gal-4 [6] was determined as 0.051 ± 0.003 mM.

Turning to `CC(=O)NC1C(O)CC(OC2C(O)C(CO)OC(OC3C(CO)OC(O)C(O)C3OC3OC(C)C(O)C(O)C3O)C2O)(C(=O)O)OC1C(O)C(O)CO` (stereo not drawn) [SFL, 3’-sialyl-3-fucosyllactose], the IC50 on human Gal-7 [1] came out at 4.8 ± 0.9 mM; on human Gal-1 it was 5.7 ± 0.1 mM; at human Gal-3, 39 ± 0.6 mM; at human Gal-12 [4] it was 3.2 ± 0.4 mM. For the same molecule, on human Gal-12 [3], the Kd was 0.151 ± 0.011 mM.

B1: Gal-4: recombinant full-length human galectin-4, tandem-repeat type lectin expressed in E. coli (protein)
chain: MAYVPAPGYQPTYNPTLPYYQPIPGGLNVGMSVYIQGVASEHMKRFFVNFVVGQDPGSDVAFHFNPRFDGWDKVVFNTLQGGKWGSEERKRSMPFKKGAAFELVFIVLAEHYKVVVNGNPFYEYGHRLPLQMVTHLQVDGDLQLQSINFIGGQPLRPQGPPMMPPYPGPGHCHQQLNSLPTMEGPPTFNPPVPYFGRLQGGLTARRTIIIKGYVPPTGKSFAINFKVGSSGDIALHINPRMGNGTVVRNSLLNGSWGSEEKKITHNPFGPGQFFDLSIRCGLDRFKVYANGQHLFDFAHRLSAFQRVDTLEIQGDVTLSYVQI
modifications: left off: His6, N-terminal, cleaved | SUMO, N-terminal, cleaved
notes: recombinant full-length human galectin-4, tandem-repeat type lectin expressed in E. coli
As to B1, the “secretion of IL-6 by human-activated T lymphocytes in PBMCs” value with human PBMCs is “significant and dose-dependent increase”.

The values are drawn from PMC11367503, “Exploring galectin interactions with human milk oligosaccharides and blood group antigens identifies BGA6 as a functional galectin-4 ligand” (The Journal of Biological Chemistry, 2024).
